In US12612622B2, “Targeted mutagenesis using base editors” (Qi Biodesign Biotechnology Company Limited, priority 2018, dated 2026):
Like-named read-outs stand apart in the source and are kept apart here.

Test system: rice seedlings with OsACC mutations
Description: The herbicide was applied with pressurized equipment at 0.2 MPa and a spray volume of 450 L/ha. Three weeks later, surviving seedlings were identified.

Structure (SMILES): CC(Oc1ccc(Oc2ncc(C(F)(F)F)cc2Cl)cc1)C(=O)O (stereo not shown) [haloxyfop]
- herbicide resistance of seedlings (Group 2 seedlings, S1866F heterozygotes): slightly weaker haloxyfop resistance
- herbicide resistance of seedlings (Group 3 seedlings, A1884P heterozygotes): slightly weaker haloxyfop resistance
- herbicide resistance of seedlings (Group 6 seedlings carrying P1927F, spray 34 g active ingredient ha-1, three weeks): clearly herbicide resistant
- herbicide resistance of seedlings (Group 20 seedlings carrying W2125C, spray 34 g active ingredient ha-1, three weeks): clearly herbicide resistant
